In this assay the target is T1, Induced myeloid leukemia cell differentiation protein Mcl-1 [171-327] (Homo sapiens, UniProt Q07820).
T1 construct: 171-327
T1 sequence (Q07820 171-327): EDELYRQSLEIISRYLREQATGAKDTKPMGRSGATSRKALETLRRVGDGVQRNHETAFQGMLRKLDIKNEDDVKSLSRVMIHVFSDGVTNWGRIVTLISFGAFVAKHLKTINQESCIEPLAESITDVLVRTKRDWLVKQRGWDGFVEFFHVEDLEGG
The experiment in a line: AlphaLISA Assay. The procedure: The AlphaLISA assay was performed in a 384-well Proxiplate in a total volume of […]. The reaction mixture contained 0.0625 nM 6× His-Mcl-1 (171-327), 0.0625 nM biotinylated-Bim peptide, 10 μg/mL AlphaLISA anti-6×His-AlphaLISA acceptor beads, 40 μg/mL AlphaScreen streptavidin donor beads, and serially diluted test compounds in the binding buffer (20 mM Hepes, pH 7.5 (Teknova H1035); 150 mM NaCl (Promega V4221); 0.002% Brij 35 (Thermo Scientific 20150); 1 mM Dithiothreitol (DTT) Solution (Affymetrix 70726); 0.01% BSA (BioLabs B9000S)). 1,000× test compounds were pre-spotted onto 384-well Proxiplate (Labcyte Echo) by Echo 555 Liquid Handler (Labcyte Inc., San Jose, Calif.) followed by incubation of 5 μl Mcl-1(171-327) for 1 hour. Then 5 μL Bim (51-76) was added and incubated for 2 hours. Five μL AlphaLISA anti-6His-AlphaLISA acceptor beads were then added for 1 hour followed by addition of 5 μL AlphaScreen streptavidin donor beads for 1 hour. The reaction plates were then read on an Envision multimode reader (PerkinElmer) using AlphaScreen settings.
For orientation: Bead proximity is the source of the signal in Alpha formats.
In general, IC50 refers to the concentration needed to halve the response being measured. Low values mean greater potency in that assay, high ones weaker potency in that assay. Regarding `CO[C@H]1/C=C/C[C@H](C)C[S@@](=O)(NC(=O)c2cc3n(c2F)CCOC3)=NC(=O)c2ccc3c(c2)N(C[C@@H]2CC[C@H]21)C[C@@]1(CCCc2cc(Cl)ccc21)CO3` [US10988451, Example 174], half-maximal inhibition (IC50) required 0.153 nM.
In the case of `C[C@@H]1[C@@H](C)C/C=C/[C@H](O)[C@@H]2CC[C@H]2CN2C[C@@]3(CCCc4cc(Cl)ccc43)COc3ccc(cc32)C(=O)N=[S@]1(=O)NC(=O)c1cc2n(c1)C[C@H](CN1CCN3CCOC[C@H]3C1)OC2` [US10988451, Example 229], the IC50 is 0.03 nM.
The figure for `CO[C@H]1/C=C/C[C@H](C)C[S@@](=O)(NC(=O)C2CC(OC(F)F)C2)=NC(=O)c2ccc3c(c2)N(C[C@@H]2CC[C@H]21)C[C@@]1(CCCc2cc(Cl)ccc21)CO3` (stereo partly drawn) [US10988451, Example 431] is 0.121 nM.

The record behind these values is BindingDB's records for patent US10988451 (Gilead Sciences, 2021).
